Experimental data as given in PubChem BioAssay AID2060509 (Molecular Pharmacology Branch, DTP, NCI, 2025).

Test system: 485176-168-R4-J1-PDC spheroids with HUVEC/MSC, viability
Test: Anticancer human tumor 485176-168-R4-J1-PDC patient-derived pancreatic adenocarcinoma cell line growth inhibition [GQUAD]
Settings: for IC50: curve of first compound; for viability, T/C: stronger effect = lower value; active = viability on the fitted dose curve at most 10% of control; inactive = the rest
Outline: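 Multi-cell-type spheroids of tumor cells with HUVEC and mesenchymal stem cells, treated with drug combinations. Concentrations descend in half-log steps from near clinical Cmax, or from 10 microM where Cmax is unknown; viability read-out.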

[1] = second compound 0.0316 µM, first compound 0.0316 µM
[2] = second compound 0.0316 µM, first compound 0.1 µM
[3] = second compound 0.0316 µM, first compound 0.316 µM
[4] = second compound 0.0316 µM, first compound 1 µM
[5] = second compound 0.0316 µM, first compound 3.16 µM
[6] = second compound 0.0316 µM, first compound 10 µM
[7] = second compound 0.1 µM, first compound 0.0316 µM
[8] = second compound 0.1 µM, first compound 0.1 µM
[9] = second compound 0.1 µM, first compound 0.316 µM
[10] = second compound 0.1 µM, first compound 1 µM
[11] = second compound 0.1 µM, first compound 3.16 µM
[12] = second compound 0.1 µM, first compound 10 µM
[13] = second compound 0.316 µM, first compound 0.0316 µM
[14] = second compound 0.316 µM, first compound 0.1 µM
[15] = second compound 0.316 µM, first compound 0.316 µM
[16] = second compound 0.316 µM, first compound 1 µM
[17] = second compound 0.316 µM, first compound 3.16 µM
[18] = second compound 0.316 µM, first compound 10 µM
[19] = second compound 1 µM, first compound 0.0316 µM
[20] = second compound 1 µM, first compound 0.1 µM
[21] = second compound 1 µM, first compound 0.316 µM
[22] = second compound 1 µM, first compound 1 µM
[23] = second compound 1 µM, first compound 3.16 µM
[24] = second compound 1 µM, first compound 10 µM
[25] = second compound 3.16 µM, first compound 0.0316 µM
[26] = second compound 3.16 µM, first compound 0.1 µM
[27] = second compound 3.16 µM, first compound 0.316 µM
[28] = second compound 3.16 µM, first compound 1 µM
[29] = second compound 3.16 µM, first compound 3.16 µM
[30] = second compound 3.16 µM, first compound 10 µM
[31] = second compound 10 µM, first compound 0.0316 µM
[32] = second compound 10 µM, first compound 0.1 µM
[33] = second compound 10 µM, first compound 0.316 µM
[34] = second compound 10 µM, first compound 1 µM
[35] = second compound 10 µM, first compound 3.16 µM
[36] = second compound 10 µM, first compound 10 µM
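Also: spheroids exposed to compounds for seven days before readout.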
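For viability, T/C in this document: percent viability relative to DMSO vehicle control wells as 100%.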

C=CC(=O)N1CCN(c2nc(=O)n(-c3c(C)ccnc3C(C)C)c3nc(-c4c(O)cccc4F)c(F)cc23)C(C)C1 (centres undefined) + Cc1[nH]c2ccc(F)cc2c1-c1nc2c3cccnc3c3ncccc3c2[nH]1
inactive: viability, T/C [1] 114% | viability, T/C [2] 100% | viability, T/C [3] 103% | viability, T/C [4] 89.4% | viability, T/C [5] 122% | viability, T/C [6] 102% | viability, T/C [7] 80.1% | viability, T/C [8] 109% | viability, T/C [9] 116% | viability, T/C [10] 112% | viability, T/C [11] 117% | viability, T/C [12] 102% | viability, T/C [13] 87.3% | viability, T/C [14] 86.4% | viability, T/C [15] 92% | viability, T/C [16] 101% | viability, T/C [17] 111% | viability, T/C [18] 96.7% | viability, T/C [19] 96.7% | viability, T/C [20] 86.5% | viability, T/C [21] 104% | viability, T/C [22] 103% | viability, T/C [23] 113% | viability, T/C [24] 104% | viability, T/C [25] 91.7% | viability, T/C [26] 95.5% | viability, T/C [27] 108% | viability, T/C [28] 83.6% | viability, T/C [29] 92.1% | viability, T/C [30] 90.8% | viability, T/C [31] 87.3% | viability, T/C [32] 105% | viability, T/C [33] 78.1% | viability, T/C [34] 80.8% | viability, T/C [35] 87.7% | viability, T/C [36] 76.5%
> 10 µM: IC50 (second compound 0.0316 µM) | IC50 (second compound 0.1 µM) | IC50 (second compound 0.316 µM) | IC50 (second compound 1 µM) | IC50 (second compound 3.16 µM) | IC50 (second compound 10 µM)

Cc1cccc(N(C)C(=O)C2C(O)CCN2c2nc(C)cc(C(F)(F)F)c2C#N)c1 (centres undefined) + CN(C)c1ccc(Nc2c3ccc(NC(=O)CCN4CCCC4)cc3nc3cc(NC(=O)CCN4CCCC4)ccc23)cc1
> 10 µM: IC50 (second compound 0.0316 µM) | IC50 (second compound 0.1 µM) | IC50 (second compound 0.316 µM) | IC50 (second compound 1 µM) | IC50 (second compound 3.16 µM) | IC50 (second compound 10 µM)
inactive: viability, T/C [1] 103% | viability, T/C [2] 93.5% | viability, T/C [3] 86.2% | viability, T/C [4] 105% | viability, T/C [5] 111% | viability, T/C [6] 102% | viability, T/C [7] 91.9% | viability, T/C [8] 102% | viability, T/C [9] 98% | viability, T/C [10] 84.2% | viability, T/C [11] 94.3% | viability, T/C [12] 98.9% | viability, T/C [13] 106% | viability, T/C [14] 89.1% | viability, T/C [15] 109% | viability, T/C [16] 109% | viability, T/C [17] 118% | viability, T/C [18] 94.3% | viability, T/C [19] 93.5% | viability, T/C [20] 93.6% | viability, T/C [21] 104% | viability, T/C [22] 112% | viability, T/C [23] 101% | viability, T/C [24] 85.6% | viability, T/C [25] 110% | viability, T/C [26] 95.4% | viability, T/C [27] 80.6% | viability, T/C [28] 94% | viability, T/C [29] 111% | viability, T/C [30] 98.2% | viability, T/C [31] 97.3% | viability, T/C [32] 93% | viability, T/C [33] 81.1% | viability, T/C [34] 86.7% | viability, T/C [35] 62% | viability, T/C [36] 59.2%
